For one assay, the target named is FAK (Homo sapiens (Human), UniProt Q05397). The assay can be described thus: Biochemical assay for FAK activity (LANCE TR-FRET, ULight-poly Glu,Ala,Tyr substrate). The conditions noted are these: GST-tagged FAK, 120 min reaction. On the procedure:
(§1) Biochemical Assay for FAK/Pyk2 Activity
(§2) GST-tagged FAK was purchased from Invitrogen (PV3832). GST-tagged PYK2 was purchased from Invitrogen (PV4567). The activity of FAK/PYK2 was measured by monitoring the phosphorylation of a fluorophore labeled ULight-poly Glu, Ala, Tyr (1:1:1) peptide substrate from Perkin Elmer (TRF0101) in the presence of ATP. The phosphorylated tyrosine residue was recognized by a LANCE Europium chelate labeled anti-phosphotyrosine (PY20) antibody from Perkin Elmer (AD0066). This brought the fluorophore and europium chelate in close proximity ([…]) that upon excitation at 320 nm by an Envision (PerkinElmer), energy can be transferred from the donor Europium chelate to the acceptor fluorophore. […] The strength of the signal was, therefore, directly proportional to the FAK/PYK2 activity.
(§3) To measure inhibitory activity of FAK/PYK2 inhibitors, compounds were first prepare as a 1 mM stock in 100% DMSO and 3-fold serial dilution was performed in a 96-well plate (Corning, 3897) to generate 12 different concentration of 100× stock. A 5 μl of 100× stock of each concentration was added to wells containing 95 μl of 1× reaction buffer (40 mM Tris, pH7.5, […], 1 mM DTT and 1 mM CHAPS) to generate 5× stock. Then 2 μl of 5× stock of each concentration was added to a 384 wells-OptiPlate (PerkinElmer, 6007299).
For FAK, 4 μl of 2.5 nM FAK, 1 ul of 8 μg/μl BSA and 1.5 μl of 666 nM ULight-poly Glu, Ala, Tyr (1:1:1) peptide substrate, prepared in above reaction buffer, were added to each well. The reaction was initiated by adding 1.5 μl of 33.3 μM ATP. The reaction was allowed to proceed for 120 min before being quenched with 5 μl of 40 mM EDTA stop buffer prepared in 1×LANCE detection buffer (PerkinElmer, CR97-100).
(§4) Upon quenching of the reaction, 5 μl of 8 nM anti-phosphotyrosine antibody was added to each well and incubated for 60 minutes. The plate was measured using an Envision (PerkinElmer) based on the theory mentioned above.
Background: In TR-FRET formats the signal depends on donor and acceptor labels being close together.

The target in a further assay is PYK2 (Homo sapiens (Human), UniProt Q14289). The assay can be described thus: Biochemical assay for PYK2 activity (LANCE TR-FRET, ULight-poly Glu,Ala,Tyr substrate). The settings on record: GST-tagged PYK2, 40 min reaction. The protocol:
as §1, §2, §3
For PYK2, 5 μl of 2 nM PYK2 and 1.5 μl of 666 nM ULight-poly Glu, Ala, Tyr (1:1:1) peptide substrate, prepared in above reaction buffer, were added to each well. The reaction was initiated by adding 1.5 μl of 46.6 μM ATP. The reaction was allowed to proceed for 40 min before being quenched with 5 μl of 40 mM EDTA stop buffer prepared in 1×LANCE detection buffer (PerkinElmer, CR97-100).
as §4

This passage reports IC50 results from patent publication US9428508B2, “2,4-diamino-6,7-dihydro-5H-pyrrolo[2,3]pyrimidine derivatives as FAK/Pyk2 inhibitors” (Centaurus BioPharma Co., Ltd., priority 2011, dated 2016).

Usually IC50 stands for the concentration needed to halve the response being measured. The low end stands for greater potency in that assay, the high end for weaker potency in that assay.

Sequence of PYK2 (Q14289 whole entry): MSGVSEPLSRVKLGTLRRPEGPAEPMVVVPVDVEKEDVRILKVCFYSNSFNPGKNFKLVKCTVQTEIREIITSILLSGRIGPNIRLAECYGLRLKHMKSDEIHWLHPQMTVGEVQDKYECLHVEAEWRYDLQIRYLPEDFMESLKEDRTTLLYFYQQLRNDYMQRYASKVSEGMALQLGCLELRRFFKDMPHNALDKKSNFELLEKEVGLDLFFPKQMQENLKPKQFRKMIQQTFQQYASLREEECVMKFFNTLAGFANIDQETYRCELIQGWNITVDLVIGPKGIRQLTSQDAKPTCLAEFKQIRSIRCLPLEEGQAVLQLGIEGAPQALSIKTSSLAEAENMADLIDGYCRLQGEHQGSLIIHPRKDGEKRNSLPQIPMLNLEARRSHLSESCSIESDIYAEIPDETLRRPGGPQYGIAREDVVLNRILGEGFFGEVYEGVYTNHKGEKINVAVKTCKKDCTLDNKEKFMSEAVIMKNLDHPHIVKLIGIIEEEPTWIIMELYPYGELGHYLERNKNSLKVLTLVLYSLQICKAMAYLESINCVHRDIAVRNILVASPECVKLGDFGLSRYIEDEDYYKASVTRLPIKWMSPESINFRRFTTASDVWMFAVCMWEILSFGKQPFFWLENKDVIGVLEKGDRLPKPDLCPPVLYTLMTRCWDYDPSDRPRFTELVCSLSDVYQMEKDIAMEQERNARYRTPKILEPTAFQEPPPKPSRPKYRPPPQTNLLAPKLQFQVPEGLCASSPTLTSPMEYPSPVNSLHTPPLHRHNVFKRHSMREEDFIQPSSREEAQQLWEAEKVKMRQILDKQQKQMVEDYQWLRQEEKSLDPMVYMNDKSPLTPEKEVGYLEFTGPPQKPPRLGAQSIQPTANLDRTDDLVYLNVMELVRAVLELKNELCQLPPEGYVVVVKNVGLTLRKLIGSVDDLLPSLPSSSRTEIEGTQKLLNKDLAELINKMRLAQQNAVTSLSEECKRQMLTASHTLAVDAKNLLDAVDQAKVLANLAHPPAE
Sequence of FAK (Q05397 whole entry): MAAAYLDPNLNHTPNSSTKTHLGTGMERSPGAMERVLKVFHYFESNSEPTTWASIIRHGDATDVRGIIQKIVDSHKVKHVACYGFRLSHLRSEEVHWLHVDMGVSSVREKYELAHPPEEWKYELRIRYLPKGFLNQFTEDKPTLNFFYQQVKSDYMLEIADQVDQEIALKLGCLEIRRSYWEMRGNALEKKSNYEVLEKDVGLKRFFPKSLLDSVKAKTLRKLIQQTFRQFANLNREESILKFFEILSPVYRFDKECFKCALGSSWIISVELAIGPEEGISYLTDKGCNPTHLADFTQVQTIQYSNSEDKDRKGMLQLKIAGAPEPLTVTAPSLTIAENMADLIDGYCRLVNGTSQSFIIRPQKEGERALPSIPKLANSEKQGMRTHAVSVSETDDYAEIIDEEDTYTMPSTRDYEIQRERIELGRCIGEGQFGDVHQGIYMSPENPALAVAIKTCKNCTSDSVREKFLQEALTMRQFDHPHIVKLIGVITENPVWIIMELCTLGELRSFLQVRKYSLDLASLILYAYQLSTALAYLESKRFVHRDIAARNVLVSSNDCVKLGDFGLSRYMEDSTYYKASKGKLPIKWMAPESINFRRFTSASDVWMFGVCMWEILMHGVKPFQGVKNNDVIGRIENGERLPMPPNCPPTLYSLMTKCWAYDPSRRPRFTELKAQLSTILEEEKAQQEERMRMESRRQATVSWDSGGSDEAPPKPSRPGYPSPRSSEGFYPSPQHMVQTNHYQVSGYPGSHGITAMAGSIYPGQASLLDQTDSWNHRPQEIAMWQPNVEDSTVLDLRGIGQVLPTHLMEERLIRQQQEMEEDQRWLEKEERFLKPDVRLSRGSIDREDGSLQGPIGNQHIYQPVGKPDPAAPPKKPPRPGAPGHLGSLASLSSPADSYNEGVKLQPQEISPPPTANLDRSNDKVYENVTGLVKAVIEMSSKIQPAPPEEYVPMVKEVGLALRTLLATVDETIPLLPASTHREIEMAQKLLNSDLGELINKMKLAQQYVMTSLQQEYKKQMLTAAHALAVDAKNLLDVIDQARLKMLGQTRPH

Turning to `COCCCNS(=O)(=O)c1ccccc1Nc1nc(Nc2ccc(N3CCOCC3)cc2OC)nc2c1CCN2` [Example 48, 2-(2-(2-methoxy-4-morpholinophenylamino)-6,7-dihydro-5H-pyrrolo[2,3-d]pyrimidin-4-ylamino)-N-(3-methoxypropyl)benzenesulfonamide], the IC50 at FAK and against PYK2 was < 100 nM throughout.
With `COc1cc(N2CCOCC2)ccc1Nc1nc2c(c(Nc3ccccc3S(=O)(=O)NCCN(C)C)n1)CCN2` [Example 49, N-(2-(dimethylamino)ethyl)-2-(2-(2-methoxy-4-morpholinophenylamino)-6,7-dihydro-5H-pyrrolo[2,3-d]pyrimidin-4-ylamino)benzenesulfonamide], the half-inhibitory concentration (IC50) at FAK and at PYK2 was < 500 nM throughout.
For `COCCNS(=O)(=O)c1ccccc1Nc1nc(Nc2ccc(N3CCOCC3)cc2OC)nc2c1CCN2` [Example 50, 2-(2-(2-methoxy-4-morpholinophenylamino)-6,7-dihydro-5H-pyrrolo[2,3-d]pyrimidin-4-ylamino)-N-(2-methoxyethyl)benzenesulfonamide], the half-maximal inhibitory concentration (IC50) against FAK and on PYK2 was < 50 nM each time.
Turning to `COc1cc(N2CCOCC2)ccc1Nc1nc2c(c(Nc3ccccc3S(=O)(=O)Nc3ccccc3)n1)CCN2` [Example 51, 2-(2-(2-methoxy-4-morpholinophenylamino)-6,7-dihydro-5H-pyrrolo[2,3-d]pyrimidin-4-ylamino)-N-phenylbenzenesulfonamide], the half-maximal inhibitory concentration (IC50) on FAK is < 200 nM; against PYK2, < 500 nM.
Consider `CC(C)NS(=O)(=O)c1ccccc1Nc1nc(Nc2ccc(N3CCOCC3)cc2)nc2c1CCN2` [Example 52, N-isopropyl-2-(2-(4-morpholinophenylamino)-6,7-dihydro-5H-pyrrolo[2,3-d]pyrimidin-4-ylamino)benzenesulfonamide], for which the IC50 at FAK and on PYK2 was < 20 nM each time.
In the case of `CNC(=O)c1ccc(Nc2nc3c(c(Nc4ccccc4S(=O)(=O)NC(C)C)n2)CCN3)cc1` [Example 53, 4-(4-(2-(N-isopropylsulfamoyl)phenylamino)-6,7-dihydro-5H-pyrrolo[2,3-d]pyrimidin-2-ylamino)-N-methylbenzamide], the 50% inhibitory concentration (IC50) at FAK and against PYK2 was < 20 nM throughout.
For `CC(C)NS(=O)(=O)c1ccccc1Nc1nc(Nc2ccc(CO)cc2)nc2c1CCN2` [Example 54, 2-(2-(4-(hydroxymethyl)phenylamino)-6,7-dihydro-5H-pyrrolo[2,3-d]pyrimidin-4-ylamino)-N-isopropylbenzenesulfonamide], the IC50 on FAK and against PYK2 was < 20 nM each time.
On to `CC(C)NS(=O)(=O)c1ccccc1Nc1nc(Nc2ccc(N3CCOCC3)cc2F)nc2c1CCN2` [Example 55, 2-(2-(2-fluoro-4-morpholinophenylamino)-6,7-dihydro-5H-pyrrolo[2,3-d]pyrimidin-4-ylamino)-N-isopropylbenzenesulfonamide], for which the IC50 at FAK and against PYK2 was < 20 nM each time.
With `COc1nc(N2CCOCC2)ccc1Nc1nc2c(c(Nc3ccccc3S(=O)(=O)NC(C)C)n1)CCN2` [Example 56, N-isopropyl-2-(2-(2-methoxy-6-morpholino-3-ylamino)-6,7-dihydro-5H-pyrrolo[2,3-d]pyrimidin-4-ylamino)benzenesulfonamide], the IC50 on FAK is < 20 nM; against PYK2, < 50 nM.
Taken in the same sequence, the figures for `CC(C)NS(=O)(=O)c1ccccc1Nc1nc(Nc2ccc(N3CCOCC3)nc2)nc2c1CCN2` [Example 57, N-isopropyl-2-(2-(6-morpholinopyridin-3-ylamino)-6,7-dihydro-5H-pyrrolo[2,3-d]pyrimidin-4-ylamino)benzenesulfonamide] were < 20 nM and < 20 nM.
In the same order, the values of `CC(C)NS(=O)(=O)c1ccccc1Nc1nc(Nc2ccc(N3CCOCC3)cn2)nc2c1CCN2` [Example 58, N-isopropyl-2-(2-(5-morpholinopyridin-2-ylamino)-6,7-dihydro-5H-pyrrolo[2,3-d]pyrimidin-4-ylamino)benzenesulfonamide] are < 20 nM and < 50 nM.
In the same order, the values of `CC(C)NS(=O)(=O)c1ccccc1Nc1nc(Nc2ccc(N3CCOCC3)cc2C(F)(F)F)nc2c1CCN2` [Example 60, N-isopropyl-2-(2-(4-morpholino-2-(trifluoromethyl)phenylamino)-6,7-dihydro-5H-pyrrolo[2,3-d]pyrimidin-4-ylamino)benzenesulfonamide] are < 500 nM and > 1000 nM.
As for `CC(C)NS(=O)(=O)c1ccccc1Nc1nc(Nc2ccc(C(F)(F)F)cc2)nc2c1CCN2` [Example 61, N-isopropyl-2-(2-(4-(trifluoromethyl)phenylamino)-6,7-dihydro-5H-pyrrolo[2,3-d]pyrimidin-4-ylamino)benzenesulfonamide], the concentration for half-maximal inhibition (IC50) on FAK is < 1000 nM; on PYK2, < 500 nM.
Taken in the same sequence, the figures for `CC(C)NS(=O)(=O)c1ccccc1Nc1nc(Nc2ccc(C(=O)N(C)C)cc2)nc2c1CCN2` [Example 62, 4-(4-(2-(N-isopropylsulfamoyl)phenylamino)-6,7-dihydro-5H-pyrrolo[2,3-d]pyrimidin-2-ylamino)-N,N-dimethylbenzamide] were < 20 nM and < 20 nM.
In the same order, the values of `CC(=O)Nc1ccc(Nc2nc3c(c(Nc4ccccc4S(=O)(=O)NC(C)C)n2)CCN3)cc1` [Example 63, N-(4-(4-(2-(N-isopropylsulfamoyl)phenylamino)-6,7-dihydro-5H-pyrrolo[2,3-d]pyrimidin-2-ylamino)phenyl)acetamide] are < 20 nM and < 20 nM.
Taken in the same sequence, the figures for `CNS(=O)(=O)c1ccc(Nc2nc3c(c(Nc4ccccc4S(=O)(=O)NC(C)C)n2)CCN3)cc1` [Example 64, N-isopropyl-2-(2-(4-(N-methylsulfamoyl)phenylamino)-6,7-dihydro-5H-pyrrolo[2,3-d]pyrimidin-4-ylamino)benzenesulfonamide] were < 20 nM and < 20 nM.
On to `CC(C)NS(=O)(=O)c1ccccc1Nc1nc(Nc2ccc(C(=O)N3CCOCC3)cc2)nc2c1CCN2` [Example 65, N-isopropyl-2-(2-(4-(morpholine-4-carbonyl)phenylamino)-6,7-dihydro-5H-pyrrolo[2,3-d]pyrimidin-4-ylamino)benzenesulfonamide], for which the IC50 at FAK and on PYK2 was < 20 nM each time.
As for `Cc1cc(N2CCOCC2)ccc1Nc1nc2c(c(Nc3ccccc3S(=O)(=O)NC(C)C)n1)CCN2` [Example 66, N-isopropyl-2-(2-(2-methyl-4-morpholinophenylamino)-6,7-dihydro-5H-pyrrolo[2,3-d]pyrimidin-4-ylamino)benzenesulfonamide], the IC50 on FAK was < 20 nM; against PYK2, < 50 nM.
Consider `COc1cc(N2CCCC2)ccc1Nc1nc2c(c(Nc3ccccc3S(=O)(=O)NC(C)C)n1)CCN2` [Example 67, N-isopropyl-2-(2-(2-methoxy-4-(pyrrolidin-1-yl)phenylamino)-6,7-dihydro-5H-pyrrolo[2,3-d]pyrimidin-4-ylamino)benzenesulfonamide], for which the IC50 was < 50 nM on FAK and < 100 nM at PYK2.
Taken in the same sequence, the figures for `COc1cc(N2CCCCC2)ccc1Nc1nc2c(c(Nc3ccccc3S(=O)(=O)NC(C)C)n1)CCN2` [Example 68, N-isopropyl-2-(2-(2-methoxy-4-(piperidin-1-yl)phenylamino)-6,7-dihydro-5H-pyrrolo[2,3-d]pyrimidin-4-ylamino)benzenesulfonamide] were < 50 nM and < 200 nM.
Taken in the same sequence, the figures for `CC(C)NS(=O)(=O)c1ccccc1Nc1nc(Nc2ccc(C(C)O)cc2)nc2c1CCN2` (centres unmarked) [Example 69, 2-(2-(4-(1-hydroxyethyl)phenylamino)-6,7-dihydro-5H-pyrrolo[2,3-d]pyrimidin-4-ylamino)-N-isopropylbenzenesulfonamide] were < 20 nM and < 20 nM.
In the case of `COc1cc(OCCN2CCOCC2)ccc1Nc1nc2c(c(Nc3ccccc3S(=O)(=O)NC(C)C)n1)CCN2` [Example 70, N-isopropyl-2-(2-(2-methoxy-4-(2-morpholinoethoxy)phenylamino)-6,7-dihydro-5H-pyrrolo[2,3-d]pyrimidin-4-ylamino)benzenesulfonamide], the IC50 against FAK and at PYK2 was < 20 nM each time.
